For 27 molecules, IC50 and inhibition results are on record in ChEMBL document CHEMBL1124701, “Some benzyl-substituted imidazoles, triazoles, tetrazoles, pyridinethiones, and structural relatives as multisubstrate inhibitors of dopamine beta-hydroxylase. 4. Structure-activity relationships at the copper binding site” (J Med Chem, 1990).

SMILES strings stand for the structures.

The first assay has as its target T1, Dopamine beta-hydroxylase (Bos taurus, UniProt P15101).
T1 sequence (P15101 whole entry): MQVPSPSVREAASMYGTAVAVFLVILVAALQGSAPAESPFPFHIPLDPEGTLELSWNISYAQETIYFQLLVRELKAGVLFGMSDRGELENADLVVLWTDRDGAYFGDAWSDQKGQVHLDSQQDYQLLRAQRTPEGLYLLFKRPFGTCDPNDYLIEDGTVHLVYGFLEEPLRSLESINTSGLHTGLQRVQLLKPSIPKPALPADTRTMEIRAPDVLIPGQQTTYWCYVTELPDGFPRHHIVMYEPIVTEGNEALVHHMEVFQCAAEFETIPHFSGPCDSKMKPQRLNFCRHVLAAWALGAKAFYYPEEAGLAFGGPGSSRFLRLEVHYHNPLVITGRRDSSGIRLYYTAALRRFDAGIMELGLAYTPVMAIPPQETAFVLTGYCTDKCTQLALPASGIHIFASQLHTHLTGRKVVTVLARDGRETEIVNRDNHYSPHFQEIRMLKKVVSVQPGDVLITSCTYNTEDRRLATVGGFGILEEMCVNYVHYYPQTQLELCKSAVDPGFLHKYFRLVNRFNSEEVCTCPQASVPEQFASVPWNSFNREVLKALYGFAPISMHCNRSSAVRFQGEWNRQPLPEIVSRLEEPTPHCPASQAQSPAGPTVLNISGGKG
The experiment in a line: Inhibitory activity was determined against bovine dopamine beta-hydroxylase (DBH).
What is called IC50 is the concentration that inhibits the measured activity by half. A lower IC50 goes with greater potency in that assay. Regarding `Fc1cc(F)cc(Cn2nc[nH]c2=S)c1`, the IC50 worked out at 6.2 µM. This counts as single-digit micromolar. Take `O=C(O)c1nccn1Cc1ccc(O)cc1`: half-maximal inhibition (IC50) was put at 112 µM. Consider `Fc1cc(F)cc(Cn2cccnc2=S)c1`, for which it took 2.8 µM to reach half-maximal inhibition (IC50).

Turning to `Sc1ncnn1Cc1ccccc1`, the midpoint of inhibition, the IC50, lay at 75 µM. Against the preceding molecule, the IC50 is about 27-fold higher. On to `O=C(O)c1nccn1Cc1ccccc1`, for which the IC50 was determined as 57 µM.

In the case of `Fc1cc(F)cc(Cc2cccnc2S)c1`, the IC50 amounted to 13.4 µM. `NCc1nccn1Cc1ccc(O)cc1` gave an IC50 of 165 µM. As for `Fc1cccc(CN2CCNC2=S)c1`, inhibition was half-maximal at 3.7 µM (IC50). This IC50 lies about 45-fold lower than the previous one. `Fc1cc(F)cc(Cn2nnnc2S)c1` yielded an IC50 of 1.54 µM. `Fc1cc(F)cc(CN2CCN=C2S)c1` showed a 50% inhibitory concentration (IC50) of 1.4 µM. The IC50 values of the last two molecules are within 1.5-fold of each other. With `Oc1c(F)cc(Cn2cnnc2S)cc1F`, the 50% inhibitory concentration (IC50) amounted to 0.035 µM. Compared with the last molecule, the IC50 is about 40-fold lower. In the case of `Sc1nnnn1Cc1ccccc1`, the IC50 worked out at 16 µM. Molecule `Fc1cccc(Cn2cnnc2S)c1` returned an IC50 of 1.9 µM. This IC50 lies about 8.4-fold lower than the previous one. Same read-out and setting: under `Fc1cccc(Cn2ncnc2S)c1` stands 15 µM; under `CSc1nccn1CCCc1ccc(O)cc1`, 79 µM.

The target in a further assay is T2, Dopamine beta-hydroxylase (Bos taurus) (UniProt P15101).
T2 sequence (whole entry): T1 sequence (P15101 whole entry)
The experiment in a line: Percent inhibition against bovine dopamine beta-hydroxylase (DBH) at 10e-4 M concentration.
Usually inhibition stands for the relative decrease from the control value, in per cent. Read a high inhibition as strong suppression. Regarding `O/N=C/c1nccn1Cc1ccccc1`, the inhibition worked out at 10%. `OCc1nccn1Cc1ccccc1` displayed an inhibition of 0%.

Molecule `O=C(O)Cc1nccn1Cc1ccccc1` gave an inhibition of 0%. `Oc1ccc(Cn2ccnc2)cc1` gave an inhibition of 17%. With `Nc1nccn1Cc1ccc(O)cc1`, the inhibition came out at 4%.

In the case of `O=C(O)Cc1nccn1Cc1ccc(O)cc1`, the inhibition was determined as 0%.

Another assay has as its target T2, Dopamine beta-hydroxylase (Bos taurus). As to the kind of experiment: Percent inhibition against bovine dopamine beta-hydroxylase (DBH) at 10e-5 M concentration.
Consider `Fc1cccc(Cc2cccnc2S)c1`, for which the inhibition turned out to be 34%. For `Sc1ncccc1Cc1ccccc1`, the inhibition was 26%.

For the molecule `Fc1cccc(Cn2cccnc2=S)c1`, the inhibition amounted to 15%. With `Sc1cnnn1Cc1ccccc1`, the inhibition was determined as 0%.

As to `S=C1NCCN1Cc1ccccc1`, the inhibition was 5%. Regarding `S=c1ncccn1Cc1ccccc1`, the inhibition was determined as 5%.
